In ChEMBL document CHEMBL1132513, “Manipulation of the C(22)-C(27) region of rapamycin: stability issues and biological implications” (Bioorg Med Chem Lett, 1999):

Legend:
Mus musculus [1] = assay: Ability to prevent transplantation rejection in vivo in mouse skin graft model; format: functional
[2] = The activity in the LAF assay is best expressed as a ratio of the rapamycin IC50 (1-9 nM) /analogue IC50 (R/A); format: functional
[3] = Ability to bind to FK506 binding protein via its inhibition of peptidyl prolyl cis-trans isomerase activity (PPIase) inherent to FKBP
[4] = Half life was determined; format: ADME; settings: rat
Mus musculus [5] = organism: Mus musculus; assay: In vitro ability to inhibit lymphoproliferation (LAF) in vitro using cells from the thymus of normal BALB/c mice; format: functional

SMILES	Survival (Mus musculus [1])	Ratio [2]	IC50 [3]	half-life [4]	IC50 (Mus musculus [5])	Skin Graft Survival (Mus musculus [1])
CO[C@H]1C[C@@H]2CC[C@@H](C)[C@@](O)(O2)C(=O)C(=O)N2CCCC[C@H]2C(=O)O[C@H](C[C@H](O)[C@H](C)C[C@@H]2CC[C@@H](O)[C@H](OC)C2)[C@H](C)/C=C(\C)[C@@H](O)[C@@H](OC)C(=O)[C@H](C)C[C@H](C)/C=C/C=C/C=C/1C	7	0.42	310 nM	21.6 h	16 nM	
CO[C@H]1C[C@@H]2CC[C@@H](C)[C@@](O)(O2)C(=O)C(=O)N2CCCCC2(C)C(=O)O[C@H]([C@H](C)C[C@H]2CC[C@H](O)[C@@H](OC)C2)CC(=O)[C@H](C)/C=C(\C)[C@@H](O)[C@@H](OC)C(=O)[C@H](C)C[C@H](C)/C=C/C=C/C=C/1C (stereo not given in full)	9.33	0.42	95 nM	38.4 h	23 nM	
CO[C@H]1C[C@@H]2CC[C@@H](C)[C@@](O)(O2)C(=O)C(=O)N2CCCC[C@H]2C(=O)O[C@H]([C@H](C)C[C@H]2CC[C@H](O)[C@@H](OC)C2)C[C@@H](OC(C)=O)[C@H](C)/C=C(\C)[C@@H](O)[C@@H](OC)C(=O)[C@H](C)C[C@H](C)/C=C/C=C/C=C/1C		0.08		34 h	99 nM	
CO[C@H]1C[C@@H]2CC[C@@H](C)[C@@](O)(O2)C(=O)C(=O)N2CCCC[C@H]2C(=O)O[C@H]([C@H](C)C[C@@H]2CC[C@@H](O)[C@H](OC)C2)CC(=O)[C@H](C)/C=C(\C)[C@@H](O)[C@@H](OC)C(=O)[C@H](C)C[C@H](C)/C=C/C=C/C=C/1C [SIROLIMUS]			15 nM	13 h	3 nM	12
CO[C@H]1C[C@@H]2CC[C@@H](C)[C@@](O)(O2)C(=O)C(=O)N2CCCC[C@H]2C(=O)O[C@H]([C@H](C)C[C@H]2CC[C@H](O)[C@@H](OC)C2)CC(O)[C@H](C)/C=C(\C)[C@@H](O)[C@@H](OC)C(=O)[C@H](C)C[C@H](C)/C=C/C=C/C=C/1C (stereo not given in full)		1.3	22 nM	17.5 h	3.7 nM	8.5
CCC12CCCCN1C(=O)C(=O)[C@]1(O)O[C@@H](CC[C@H]1C)C[C@H](OC)/C(C)=C/C=C/C=C/[C@@H](C)C[C@@H](C)C(=O)[C@H](OC)[C@H](O)/C(C)=C/[C@@H](C)C(=O)C[C@@H]([C@H](C)C[C@H]1CC[C@H](O)[C@H](OC)C1)OC2=O (stereo not given in full)		0.07	950 nM		140 nM	
CO[C@H]1C[C@@H]2CC[C@@H](C)[C@@](O)(O2)C(=O)C(=O)N2CCCCC2(C)C(=O)O[C@H]([C@H](C)C[C@H]2CC[C@H](O)[C@@H](OC)C2)CC(O)[C@H](C)/C=C(\C)[C@@H](O)[C@@H](OC)C(=O)[C@H](C)C[C@H](C)/C=C/C=C/C=C/1C (stereo not given in full)	7	0.23	150 nM	14.6 h	9.9 nM	
